Source: article PMC7616175 (ACS chemical neuroscience, 2018)
Substitutions are numbered along the chain they refer to.

Experiments:
hM1 mAChR [1] = biological target: T1, hM1 mAChR (Homo sapiens, UniProt P11229); assay: Radioligand equilibrium binding assay
T1 sequence (P11229 1-460): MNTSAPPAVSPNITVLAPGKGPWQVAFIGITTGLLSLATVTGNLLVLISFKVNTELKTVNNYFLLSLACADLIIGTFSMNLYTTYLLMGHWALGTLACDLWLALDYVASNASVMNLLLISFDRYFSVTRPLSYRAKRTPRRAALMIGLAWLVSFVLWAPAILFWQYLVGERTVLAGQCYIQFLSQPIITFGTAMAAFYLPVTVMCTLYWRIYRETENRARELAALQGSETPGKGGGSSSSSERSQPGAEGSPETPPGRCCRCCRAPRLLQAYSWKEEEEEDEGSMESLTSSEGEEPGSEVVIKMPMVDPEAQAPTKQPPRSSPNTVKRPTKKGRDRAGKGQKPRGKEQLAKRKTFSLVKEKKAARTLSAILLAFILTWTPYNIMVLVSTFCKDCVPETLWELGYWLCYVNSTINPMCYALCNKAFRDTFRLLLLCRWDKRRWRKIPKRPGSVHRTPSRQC

M1 mAChR = biological target: T2, M1 mAChR (Mus musculus, UniProt P12657); assay: IP1 accumulation assay in mouse primary cortical neurons; assay type: cell-based; settings: for log τB (logarithm of the operational efficacy estimate) / τB (antilogarithm of the operational efficacy parameter): IP1 accumulation
T2 sequence (P12657 1-460): T1 sequence (P11229 1-460) with A5V, T254S, R320K, A337G, I413V

hM1 mAChR [2] = biological target: T1, hM1 mAChR; assay: IP1 accumulation assay in FlpInCHO-hM1; assay type: cell-based; settings: for cluster of two-point profile (change in baseline versus change in pEC50): 1 and 10 μM modulator, compared with BQCA, CHO-M1 cells; for log τB (logarithm of the operational efficacy parameter of the allosteric modulator): operational model of allosterism (eq 2); for log τB (logarithm of the operational efficacy parameter of the allosteric modulator) / log αβ (logarithm of the functional cooperativity estimate between ACh and allosteric modulator): pKB fixed to binding value; for log αβ (logarithm of the functional cooperativity estimate between ACh and allosteric modulator): operational model of allosterism
[3] = 3H-NMS 0.5 nM, allosteric ternary complex model
[4] = mouse cortical neurons, ACh-mediated IP1 accumulation

Row | log α (logarithm of the binding cooperativity between ACh and allosteric modulator) (hM1 mAChR [1]; [3]) | cluster of two-point profile (change in baseline versus change in pEC50) (hM1 mAChR [2]) | log τB (logarithm of the operational efficacy parameter of the allosteric modulator) (hM1 mAChR [2]) | log αβ (logarithm of the functional cooperativity estimate between ACh and allosteric modulator) (hM1 mAChR [2]) | Kb (hM1 mAChR [1]) | SMILES | also measured
1 | 1.14 ± 0.13 | cluster 1 | 0.34 ± 0.05 | 1.30 ± 0.14 | 2.95 µM | O=c1cc(-c2ccccc2OCc2ccccc2)ncn1C1CCCCC1O (centres unmarked) [Compound 13, 6-(2-(Benzyloxy)phenyl)-3-(2-hydroxycyclohexyl)pyrimidin-4(3H)-one] | 
2 |  | cluster 1 |  |  |  | O=C(O)c1ccc(COc2ccccc2-c2cc(=O)n(C3CCCCC3O)cn2)cc1 (centres unmarked) [Compound 14a, 4-((2-(1-(2-Hydroxycyclohexyl)-6-oxo-1,6-dihydropyrimidin-4-yl)phenoxy)methyl)benzoic acid] | 
3 | 1.11 ± 0.09 | cluster 2 | 0.61 ± 0.06 | 1.14 ± 0.26 |  | NC(=O)c1ccc(COc2ccccc2-c2cc(=O)n(C3CCCCC3O)cn2)cc1 (centres unmarked) [Compound 14b, 4-((2-(1-(2-Hydroxycyclohexyl)-6-oxo-1,6-dihydropyrimidin-4-yl)phenoxy)methyl) benzamide] | pKB (negative logarithm of the binding affinity estimate of the allosteric modulator) (hM1 mAChR [1]; [3]): 6.72 ± 0.03
4 |  | cluster 3 |  |  |  | CN(C)C(=O)c1ccc(COc2ccccc2-c2cc(=O)n(C3CCCCC3O)cn2)cc1 (centres unmarked) [Compound 15a, 4-((2-(1-(2-Hydroxycyclohexyl)-6-oxo-1,6-dihydropyrimidin-4-yl)phenoxy)methyl)-N,N-dimethylbenzamide] | 
5 |  | cluster 4 |  |  |  | CNC(=O)c1ccc(COc2ccccc2-c2cc(=O)n(C3CCCCC3O)cn2)cc1 (centres unmarked) [Compound 15b, 4-((2-(1-(2-Hydroxycyclohexyl)-6-oxo-1,6-dihydropyrimidin-4-yl)phenoxy)methyl)-N-methylbenzamide] | 
6 | 0.81 ± 0.12 | cluster 3 | −0.09 ± 0.06 | 0.85 ± 0.16 | 16.2 µM | CCN(CC)C(=O)c1ccc(COc2ccccc2-c2cc(=O)n(C3CCCCC3O)cn2)cc1 (centres unmarked) [Compound 15c, N,N-Diethyl-4-((2-(1-(2-hydroxycyclohexyl)-6-oxo-1,6-dihydropyrimidin-4-yl)phenoxy)methyl)benzamide] | 
7 | 1.27 ± 0.13 | cluster 4 | 0.79 ± 0.04 | 1.05 ± 0.20 | 0.269 µM | CCNC(=O)c1ccc(COc2ccccc2-c2cc(=O)n(C3CCCCC3O)cn2)cc1 (centres unmarked) [Compound 15d, N-Ethyl-4-((2-(1-(2-hydroxycyclohexyl)-6-oxo-1,6-dihydropyrimidin-4-yl)phenoxy)methyl)benzamide] | 
8 |  | cluster 3 |  |  |  | O=C(c1ccc(COc2ccccc2-c2cc(=O)n(C3CCCCC3O)cn2)cc1)N1CCCCC1 (centres unmarked) [Compound 15e, 3-(2-Hydroxycyclohexyl)-6-(2-((4-(piperidine-1-carbonyl)benzyl)-oxy)phenyl)pyrimidin-4(3H)-one] | 

Second part, the compound before the results:

Row | SMILES | log α (logarithm of the binding cooperativity between ACh and allosteric modulator) (hM1 mAChR [1]; [3]) | cluster of two-point profile (change in baseline versus change in pEC50) (hM1 mAChR [2]) | log τB (logarithm of the operational efficacy parameter of the allosteric modulator) (hM1 mAChR [2]) | log αβ (logarithm of the functional cooperativity estimate between ACh and allosteric modulator) (hM1 mAChR [2]) | Kb (hM1 mAChR [1]) | also measured
9 | COc1ccc(Cn2cc(C(=O)O)c(=O)c3ccccc32)cc1 [BQCA, reference compound] | 1.26 ± 0.13 |  |  |  |  | log αβ (logarithm of the functional cooperativity estimate) (M1 mAChR; [4]): 1.73 ± 0.34; pKB (negative logarithm of the functional binding affinity estimate for the allosteric modulator) (M1 mAChR; [4]): 4.69 ± 0.40; αβ (antilogarithm of the functional cooperativity parameter) (M1 mAChR; [4]): (54)
10 | Cn1cc(-c2ccc(COc3ccccc3-c3cc(=O)n(C4CCCCC4O)cn3)cc2)cn1 (centres unmarked) [Compound 2, 3-(2-Hydroxycyclohexyl)-6-(2-((4-(1-methyl-1H-pyrazol-4-yl)-benzyl)oxy)phenyl)pyrimidin-4(3H)-one] | 1.07 ± 0.19 | cluster 2 | 0.45 ± 0.08 | 0.79 ± 0.38 | 0.324 µM | Kb (M1 mAChR): 9.55 µM; log αβ (logarithm of the functional cooperativity estimate) (M1 mAChR; [4]): 2.12 ± 0.18; αβ (antilogarithm of the functional cooperativity parameter) (M1 mAChR; [4]): (132); log τB (logarithm of the operational efficacy estimate) (M1 mAChR; mouse cortical neurons): 0.47 ± 0.13; τB (antilogarithm of the operational efficacy parameter) (M1 mAChR; mouse cortical neurons): (2.95)
11 | Cc1ccc(COc2ccccc2-c2cc(=O)n(C3CCCCC3O)cn2)cn1 (centres unmarked) [Compound 9i, 3-(2-Hydroxycyclohexyl)-6-(2-((6-methylpyridin-3-yl)methoxy)-phenyl)pyrimidin-4(3H)-one] | 1.30 ± 0.16 |  | 0.37 ± 0.05 | 1.24 ± 0.18 | 5.5 µM | Kb (M1 mAChR): 3.24 µM; log αβ (logarithm of the functional cooperativity estimate) (M1 mAChR; [4]): 0.98 ± 0.11; αβ (antilogarithm of the functional cooperativity parameter) (M1 mAChR; [4]): (9.5); log τB (logarithm of the operational efficacy estimate) (M1 mAChR; mouse cortical neurons): −0.52 ± 0.09; τB (antilogarithm of the operational efficacy parameter) (M1 mAChR; mouse cortical neurons): (0.30)
12 | NS(=O)(=O)c1ccc(COc2ccccc2-c2cc(=O)n(C3CCCCC3O)cn2)cc1 (centres unmarked) [Compound 9k, 4-((2-(1-(2-Hydroxycyclohexyl)-6-oxo-1,6-dihydropyrimidin-4-yl)phenoxy)methyl) benzenesulfonamide] |  | cluster 2 |  |  |  | 
13 | CN(C)S(=O)(=O)c1ccc(COc2ccccc2-c2cc(=O)n(C3CCCCC3O)cn2)cc1 (centres unmarked) [Compound 9l, 4-((2-(1-(2-Hydroxycyclohexyl)-6-oxo-1,6-dihydropyrimidin-4-yl)phenoxy)methyl)-N,N-dimethylbenzenesulfonamide] |  | cluster 3 |  |  |  | 
14 | O=c1cc(-c2ccccc2OCc2ccc(-c3cn[nH]c3)cc2)ncn1C1CCCCC1O (centres unmarked) [Compound 10, 6-(2-((4-(1H-Pyrazol-4-yl)benzyl)oxy)phenyl)-3-(2-hydroxycyclohexyl)pyrimidin-4(3H)-one] |  | cluster 2 |  |  |  | 
